Tests used:
[1] = molecular target: T1, Human GHS-R (ghrelin receptor) (Homo sapiens, UniProt Q92847); assay: GHSR Agonist BACMAM FLIPR Assay (Method X or Y); format: cell-based; details: U2OS cells, maximum asymptote relative to that of the hGhrelin concentration response curve
T1 construct: The full-length gene was transferred into pCDN for expression analysis; expressed in transfected cells; host or cells: U2OS cells transduced with human GHSR BacMam virus
Procedure: (§1) 24 h prior to assay U2OS cells at confluence 100% were harvested and spun down. The supernatant was removed and the cells resuspended in media (DMEM+10% FBS+1% L-Glutamine). A cell count was performed using the Cedex instrumentation, and the concentration of cells was adjusted using media to give 200K cells per mL (10K cells/50 μL).
(§2) Human GHSR BACMAM virus was added to the cell suspension at an appropriate % volume (calculated for individual batches of BACMAM virus as viral titres vary). The transduced cell suspension was dispensed into FLIPR 384-well clear bottom plates, 50 μL per well. Cell plates were incubated at 37° C. overnight.
Master compound plates were prepared in 100% DMSO. 3 mM was the top concentration (giving 10 μM final concentration) and they were serially diluted 1 in 4. 1 μL from the master plate was transferred to a daughter plate, to which was added 50 μL of compound dilution (Tyrodes {Elga water+145 mM NaCl+5 mM KCl+20 mM HEPES+10 mM glucose+1 mM MgCl2+1.5 mM CaCl2}. For the agonist assay, the compound buffer also contained 0.1% BSA. This plate was used for the assay. Ghrelin was always prepared in buffer containing 0.1% BSA.
Master compound plates were prepared in 100% DMSO. 3 mM was the top concentration (giving 10 μM final concentration) and they were serially diluted 1 in 4. 1 μL from the master plate was transferred to a daughter plate, to which was added 50 μL of compound dilution (HBSS {Elga water+137 mM NaCl+5 mM KCl+0.41 mMa KH2PO4(anhyd)+20 mM HEPES+5 mM glucose+0.81 mM MgSO4(anhyd)+1.3 mM CaCl2+4.16 mM NaHCO3}. For the agonist assay, the compound buffer also contained 0.1% BSA. This plate was used for the assay. Ghrelin was always prepared in buffer containing 0.1% BSA.
Media was aspirated from cell plates using a cell washer (leaving 10 μL of media). Cells were immediately loaded with loading buffer (Tyrodes buffer-(Elga water+145 mM NaCl+5 mM KCl+20 mM HEPES+10 mM glucose+1 mM MgCl2)+1.5 mM CaCl2+0.714 mg/mL Probenecid (predissolved in 1 M NaOH)+0.25 mM brilliant black+2 μM Fluo 4 dye, and incubated at 37.5° C., 5% CO2 for 90 min. The plates were placed in a FLuorimetric Imaging Plate Reader (FLIPR, Molecular Devices) where 10 μL of compound, prepared according to method A above, was added to the cells and fluorescence measurements were taken. Maximum changes in fluorescence were plotted as a percentage of the maximum response elicited by 300 nM hGhrelin and curves fitted using a 4-parameter logistic equation to generate pEC50 values. Intrinsic activity of the compounds was calculated by using the maximum asymptote of it's concentration response curve relative to the maximum asymptote of the hGhrelin concentration response curve.
Media was aspirated from cell plates using a cell washer (leaving 10 μL of media). Cells were immediately loaded with loading buffer (HBSS (Elga water+137 mM NaCl+5 mM KCl+0.41 mM KH2PO4(anhyd)+20 mM HEPES+5 mM glucose+0.81 mM MgSO4(anhyd))+1.3 mM CaCl2+4.16 mM NaHCO3+0.714 mg/mL Probenecid (predissolved in 1 M NaOH)+0.25 mM brilliant black+2 μM Fluo 4 dye, and incubated at 37.5° C., 5% CO2 for 90 min. The plates were placed in a FLuorimetric Imaging Plate Reader (FLIPR, Molecular Devices) where 10 μL of compound, prepared according to method B above, was added to the cells and fluorescence measurements were taken. Maximum changes in fluorescence were plotted as a percentage of the maximum response elicited by 300 nM hGhrelin and curves fitted using a 4-parameter logistic equation to generate pEC50 values. Intrinsic activity of the compounds was calculated by using the maximum asymptote of it's concentration response curve relative to the maximum asymptote of the hGhrelin concentration response curve.

[2] = molecular target: T1, Human GHS-R (ghrelin receptor); assay: GHSR Agonist BACMAM FLIPR Assay (Method Z); format: cell-based; details: U2OS cells, maximum asymptote relative to maximum response of hGhrelin at 100 nM
Procedure: as §1, §2
Master compound plates were prepared in 100% DMSO. 0.6 mM was the top concentration (giving 3 μM final concentration) and they were serially diluted 1 in 4. 1 μL from the master plate was transferred to a daughter plate, to which was added 50 μL of compound dilution (NaCl (145 mM) KCl (5 mM) CaCl2 (2 mM) MgCl2 (1 mM) HEPES (20 mM) D-(+)-Glucose (1 g/l), pluronic acid (0.05%), pH 7.3). This plate was used for the assay. Ghrelin was always prepared in compound dilution buffer containing 0.1% BSA.
Media was washed from cell plates, using a cell washer (leaving 20 μL of washing buffer (NaCl (145 mM)+KCl (5 mM)+CaCl2 (2 mM)+MgCl2 (1 mM)+HEPES (20 mM)+D-(+)-Glucose (1 g/l)+Probenecid (2.5 mM), pH 7.3). Cells were immediately loaded with loading buffer (washing buffer+pluronic acid (0.02%)+Fluo 4 dye (2 μM), and incubated at 37° C., for 60 min. After a second washing step (same as for the pre-loading, but leaving 30 μL of washing buffer), the plates were placed in a FLuorimetric Imaging Plate Reader (FLIPR, Molecular Devices) where 10 μL of compound, prepared according to method C above, was added to the cells and fluorescence measurements were taken. […] Percentage activation of the compounds was calculated by using the maximum asymptote of it's concentration response curve relative to the maximum response of the hGhrelin at 100 nM concentration.

T1 sequence (Q92847 whole entry): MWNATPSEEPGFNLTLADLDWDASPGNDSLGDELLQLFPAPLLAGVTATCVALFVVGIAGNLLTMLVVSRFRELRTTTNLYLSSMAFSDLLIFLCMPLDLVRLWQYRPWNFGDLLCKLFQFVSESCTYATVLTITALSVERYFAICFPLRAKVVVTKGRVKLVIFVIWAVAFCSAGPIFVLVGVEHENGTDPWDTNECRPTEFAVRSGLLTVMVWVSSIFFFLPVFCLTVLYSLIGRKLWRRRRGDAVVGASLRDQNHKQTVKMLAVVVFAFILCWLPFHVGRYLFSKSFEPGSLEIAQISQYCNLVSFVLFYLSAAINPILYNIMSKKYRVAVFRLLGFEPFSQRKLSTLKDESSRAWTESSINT

intrinsic activity (IA) [1] | percentage activation [2] | SMILES
0.4 |  | CN1CCN(C(C(=O)NNc2cc(C(F)(F)F)cc(C(F)(F)F)c2)c2cccc(OC(F)(F)F)c2)CC1 (racemic) [Compound 37, (±)-N′-[3,5-bis(trifluoromethyl)phenyl]-2-(4-methyl-1-piperazinyl)-2-{3-[(trifluoromethyl)oxy]phenyl}acetohydrazide]
0.4 |  | CN1CCN(C(C(=O)NNc2cc(C(F)(F)F)cc(C(F)(F)F)c2)c2cccc(Cl)c2)CC1.O=CO (racemic) [Compound 45, (±)-formic acid-N′-[3,5-bis(trifluoromethyl)phenyl]-2-(3-chlorophenyl)-2-(4-methyl-1-piperazinyl)acetohydrazide]
0.4 |  | CN1CCN(C(C(=O)NNc2cc(C(F)(F)F)cc(C(F)(F)F)c2)c2cccc3c2OC(F)(F)O3)CC1 (racemic) [Compound 46, (±)-N′-[3,5-bis(trifluoromethyl)phenyl]-2-(2,2-difluoro-1,3-benzodioxol-4-yl)-2-(4-methyl-1-piperazinyl)acetohydrazide]
0.4 |  | O=C(NNc1cc(C(F)(F)F)cc(C(F)(F)F)c1)C(c1cccnc1)N1CCN2CCC[C@H]2C1 (single isomer, unassigned) [Compound 126]
0.4 |  | CN1CCN(C(C)(C(=O)NNc2cc(C(F)(F)F)cc(C(F)(F)F)c2)c2ccccn2)CC1 (single isomer, unassigned) [Compound 130, N′-[3,5-bis(trifluoromethyl)phenyl]-2-(4-methyl-1-piperazinyl)-2-(2-pyridinyl)propanohydrazide]
0.4 |  | Cc1ccc(C(C(=O)NNc2cc(C(F)(F)F)cc(C(F)(F)F)c2)N2CCN3CCC[C@@H]3C2)c(C)n1 (single isomer, unassigned; diastereoisomer 1) [Compound 80]
 | > 40% | Cc1ccc(C(C(=O)NNc2cc(C(F)(F)F)cc(C(F)(F)F)c2)N2CCN3CCC[C@@H]3C2)cn1 (single isomer, unassigned; diastereoisomer 1) [Compound 92]
 | > 40% | Cc1ncccc1C(C(=O)NNc1cc(C(F)(F)F)cc(C(F)(F)F)c1)N1CCN2CCC[C@@H]2C1 (single isomer, unassigned; diastereoisomer 1) [Compound 94]
 | > 40% | O=C(NNc1cc(C(F)(F)F)cc(C(F)(F)F)c1)C(c1ccc2c(c1)OCCO2)N1CCN2CCC[C@@H]2C1 (single isomer, unassigned; diastereoisomer 1) [Compound 96]
0.4 |  | O=C(NNc1cc(C(F)(F)F)cc(C(F)(F)F)c1)C(c1ccccc1Cl)N1CCN2CCC[C@H]2C1 (single isomer, unassigned; diastereoisomer 2) [Compound 83]
0.4 |  | O=C(NNc1cc(C(F)(F)F)cc(C(F)(F)F)c1)C(c1ccccc1Cl)N1CCN2CCC[C@@H]2C1 (single isomer, unassigned; diastereoisomer 2) [Compound 85]
0.4 |  | CN1CCN(C(C(=O)NNc2cc(C(F)(F)F)cc(C(F)(F)F)c2)c2ccccc2Cl)CC1 (single isomer, unassigned; enantiomer 1) [Compound 9, N′-[3,5-bis(trifluoromethyl)phenyl]-2-(2-chlorophenyl)-2-(4-methyl-1-piperazinyl)acetohydrazide-enantiomer 1]
0.4 |  | CN1CCN(C(C(=O)NNc2cc(C(F)(F)F)cc(C(F)(F)F)c2)c2ccc3c(c2)CCO3)CC1 (single isomer, unassigned; enantiomer 1) [Compound 20, N′-[3,5-bis(trifluoromethyl)phenyl]-2-(2,3-dihydro-1-benzofuran-5-yl)-2-(4-methyl-1-piperazinyl)acetohydrazide-enantiomer 1]
0.4 |  | Cc1cccnc1C(C(=O)NNc1cc(C(F)(F)F)cc(C(F)(F)F)c1)N1CCN(C)CC1 (single isomer, unassigned; enantiomer 1) [Compound 55, N′-[3,5-bis(trifluoromethyl)phenyl]-2-(4-methyl-1-piperazinyl)-2-(3-methyl-2-pyridinyl)acetohydrazide-enantiomer 1]
0.4 |  | CN1CCC(C(C(=O)NNc2cc(Cl)cc(Cl)c2)c2cccc3ccccc23)CC1 (single isomer, unassigned; enantiomer 1) [Compound 73, N′-(3,5-dichlorophenyl)-2-(1-methyl-4-piperidinyl)-2-(1-naphthalenyl)-acetohydrazide-enantiomer 1]
0.4 |  | CN1CCN(C(C(=O)NNc2cc(C(F)(F)F)cc(C(F)(F)F)c2)c2cncnc2)CC1 (single isomer, unassigned; enantiomer 1) [Compound 78, N′-[3,5-bis(trifluoromethyl)phenyl]-2-(4-methyl-1-piperazinyl)-2-(5-pyrimidinyl)acetohydrazide-enantiomer 1]
0.4 |  | Cc1cccnc1C(C(=O)NNc1cc(C(F)(F)F)cc(C(F)(F)F)c1)N1CCN(C)CC1 (single isomer, unassigned; enantiomer 2) [Compound 56, N′-[3,5-bis(trifluoromethyl)phenyl]-2-(4-methyl-1-piperazinyl)-2-(3-methyl-2-pyridinyl)acetohydrazide-enantiomer 2]

From patent publication US20100286152A1, “N-PHENYL HYDRAZIDES AS MODULATORS OF THE GHRELIN RECEPTOR” (Glaxo Group Limited, priority 2007, published 2010)
